# Counter-ions that a name gives are not always drawn.
# Target: T1, CHK1 (kinase domain) (Homo sapiens, UniProt O14757)
# T1 construct: a solution containing 1 nM of CHK1 (kinase domain)
# T1 sequence (O14757 9-265 limits assumed): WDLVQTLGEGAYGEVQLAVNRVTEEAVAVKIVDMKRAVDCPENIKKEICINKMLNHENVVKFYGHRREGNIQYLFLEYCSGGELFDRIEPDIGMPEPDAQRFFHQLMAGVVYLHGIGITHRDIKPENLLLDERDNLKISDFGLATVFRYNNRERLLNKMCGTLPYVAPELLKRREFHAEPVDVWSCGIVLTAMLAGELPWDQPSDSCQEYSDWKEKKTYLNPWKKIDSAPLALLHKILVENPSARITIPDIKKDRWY
# Experiment: CHK1 Ki determination, spectrophotometric coupled (pyruvate kinase/lactate dehydrogenase) assay
# Type: biochemical
# Conditions: CHK-1 kinase domain; 150 uM ATP, 125 uM Syntide 2
# Experimental: After 15 min pre-incubation, the enzymatic reaction was initiated by the simultaneous addition of Syntide 2 peptide (125 uM, final concentration) and ATP (150 uM, final concentration). The kinase-catalyzed production of ADP from ATP that accompanied phosphoryl transfer to the substrate Syntide 2 was coupled to the oxidation of NADH through the activities of pyruvate kinase and lactate dehydrogenase. NADH conversion to NAD^+ was monitored by the decrease in absorbance at 340 nm (ε=6.22 cm^−1 mM^−1) using a microplate reader from Molecular Devices Spectormax Plus (Sunnyvale, Calif.) or BMG LABTECH Inc (Offenburg, Germany).
# The inhibition of CHK1 was analyzed by fitting the data to the following equation to determine Kiapp:
# [formula] where [E]o and [I]o are the active enzyme and inhibitor concentration, respectively; Ki is the inhibition binding constant and Km the Michaelis-Menten constant for ATP; Vi and Vo are the rates of substrate oxidation in the presence of and in the absence of inhibitor, respectively. EC50 Determination (Cellular Assay)
# Under the “Ki” column, data entries in the format of “%” are percent inhibition data where no Ki data is available. Data entry under the “EC50” column with an * are data obtained using Mia Paca-2 cells rather than HeLa cells. Data is not available where noted as n/a.
row,Ki [nM],SMILES
1,5.27,"CCOc1cc2ncn(-c3cncc(N[C@H]4CNCC[C@@H]4OC)n3)c2cn1 [Example 298, [6-(6-Ethoxy-imidazo[4,5-c]pyridin-3-yl)-pyrazin-2-yl]-((3S,4S)-4-methoxy-piperidin-3-yl)-amine]"
2,374,"N#Cc1ccc2ncc(-c3cncc(N[C@H]4CNC[C@H]4C4CC4)n3)n2c1 [Example 263, 3-(6-{[(3R,4R)-4-cyclopropylpyrrolidin-3-yl]amino}pyrazin-2-yl)imidazo[1,2-a]pyridine-6-carbonitrile]"
3,1000,"c1cnn2c(-c3cncc(NC4CCCCNC4)n3)cnc2c1 (stereo not shown) [Example 80, N-(6-imidazo[1,2-b]pyridazin-3-ylpyrazin-2-yl)azepan-3-amine, acetate salt]"
4,18.4,"C[C@H]1NCCC[C@H]1Nc1cncc(-c2cnc3ccc(F)cn23)n1 [Example 164, 6-(6-fluoroimidazo[1,2-a]pyridin-3-yl)-N-[(2R,3R)-2-methylpiperidin-3-yl]pyrazin-2-amine]"
5,1000,"C[C@@H]1CC[C@@H](Nc2cncc(-c3cnc4cccnn34)n2)CN1 [Example 84, 6-imidazo[1,2-b]pyridazin-3-yl-N-[(3R,6R)-6-methylpiperidin-3-yl]pyrazin-2-amine, acetate salt]"
6,21.4,"Cc1cn2c(-c3cncc(N[C@@H]4CCCN[C@H]4C)n3)cnc2s1 [Example 133, 6-(2-methylimidazo[2,1-b][1,3]thiazol-5-yl)-N-[(2S,3R)-2-methylpiperidin-3-yl]pyrazin-2-amine]"
7,195,"c1ccc2c(c1)ncn2-c1cncc(NC2CCNC2)n1 (stereo not shown) [Example 208, 6-(1H-benzimidazol-1-yl)-N-(pyrrolidin-3-yl)pyrazin-2-amine]"
8,2.85,"COc1ccn2c(-c3cncc(N[C@H]4CNC[C@H]4C4CCCC4)n3)cnc2c1 [Example 210, N-[(3R,4R)-4-cyclopentylpyrrolidin-3-yl]-6-(7-methoxyimidazo[1,2-a]pyridin-3-yl)pyrazin-2-amine]"
9,4.11,"c1cc2c(-c3cncc(N[C@@H]4CCCNC4)n3)cnn2cn1 [Example 299, (R)-Piperidin-3-yl-(6-pyrazolo[1,5-c]pyrimidin-3-yl-pyrazin-2-yl)-amine]"
10,585,"F[C@@H]1CNC[C@@H]1Nc1cncc(-c2cnn3ccccc23)n1 (relative stereo) [Example 45, Cis N-[4-fluoropyrrolidin-3-yl]-6-pyrazolo [1,5-a]pyridin-3-ylpyrazin-2-amine]"
11,37.5,"C[C@@H]1NCCC[C@H]1Nc1cncc(-c2cnc3ccc(F)cn23)n1 [Example 95, 6-(6-fluoroimidazo[1,2-a]pyridin-3-yl)-N-[(2S,3R)-2-methylpiperidin-3-yl]pyrazin-2-amine]"
12,105,"CCOc1cc2ncn(-c3cncc(N[C@H]4CN[C@H](COC)C4)n3)c2cn1 [Example 297, [6-(6-Ethoxy-imidazo[4,5-c]pyridin-3-yl)-pyrazin-2-yl]-((3R,5S)-5-methoxymethyl-pyrrolidin-3-yl)-amine]"
13,1000,"F[C@@H]1CNC[C@@H]1Nc1cncc(-c2cnc3cccnn23)n1 [Example 81, N-[(3S,4R)-4-fluoropyrrolidin-3-yl]-6-imidazo[1,2-b]pyridazin-3-ylpyrazin-2-amine, acetate salt]"
14,1000,"F[C@@H]1CNC[C@H]1Nc1cncc(-c2cnc3cccnn23)n1 [Example 82, N-[(3R,4R)-4-fluoropyrrolidin-3-yl]-6-imidazo[1,2-b]pyridazin-3-ylpyrazin-2-amine]"
15,1000,"C[C@H]1CC[C@@H](Nc2cncc(-c3cnc4cccnn34)n2)CN1 [Example 83, 6-imidazo[1,2-b]pyridazin-3-yl-N-[(3R,6S)-6-methylpiperidin-3-yl]pyrazin-2-amine, acetate salt]"

# Same assay, conditions: CHK-1 kinase domain; inhibitor concentration not given
row,SMILES,percent inhibition (where no Ki data is available)
1,"Cc1ncc(-c2cncc(N[C@@H]3CCNC3)n2)n1Cc1ccccc1 [Example 75, 6-(1-benzyl-2-methyl-1H-imidazol-5-yl)-N-[(3R)-pyrrolidin-3-yl]pyrazin-2-amine]",6.7%^
2,"c1ccn2c(-c3cncc(N[C@@H]4CCCNC4)n3)nnc2c1 [Example 8, N-[(3R)-piperidin-3-yl]-6-[1,2,4]triazolo[4,3-a]pyridin-3-ylpyrazin-2-amine]",16.7%^
3,"Cc1ncc(-c2cncc(N[C@@H]3CC[C@@H](C)NC3)n2)n1C [Example 71, 6-(1,2-dimethyl-1H-imidazol-5-yl)-N-[(3R,6R)-6-methylpiperidin-3-yl]pyrazin-2-amine]",0%
4,"Cc1ncc(-c2cncc(N[C@@H]3CCNC3)n2)n1C [Example 73, 6-(1,2-dimethyl-1H-imidazol-5-yl)-N-[(3R)-pyrrolidin-3-yl]pyrazin-2-amine]",0%
5,"Cc1ncc(-c2cncc(N[C@@H]3CCCNC3)n2)n1Cc1ccccc1 [Example 72, 6-(1-benzyl-2-methyl-1H-imidazol-5-yl)-N-[(3R)-piperidin-3-yl]pyrazin-2-amine]",1.4%^
6,"Cc1ncc(-c2cncc(N[C@H]3CNC[C@@H]3F)n2)n1C [Example 77, 6-(1,2-dimethyl-1H-imidazol-5-yl)-N-[(3S,4S)-4-fluoropyrrolidin-3-yl]pyrazin-2-amine]",0%
7,"Cc1ncc(-c2cncc(NC3CCCCNC3)n2)n1Cc1ccccc1 (stereo not shown) [Example 74, N-[6-(1-benzyl-2-methyl-1H-imidazol-5-yl)pyrazin-2-yl]azepan-3-amine]",5.8%^
8,"c1ccc2c(c1)ncn2-c1cncc(N[C@H]2CCCNC2)n1 [Example 63, 6-(1H-benzimidazol-1-yl)-N-[(3S)-piperidin-3-yl]pyrazin-2-amine]",35.5%^
9,"Cc1ncc(-c2cncc(N[C@@H]3CC[C@@H](C)NC3)n2)n1Cc1ccccc1 [Example 68, 6-(1-benzyl-2-methyl-1H-imidazol-5-yl)-N-[(3R,6R)-6-methylpiperidin-3-yl]pyrazin-2-amine]",0%
10,"Cc1ncc(-c2cncc(N[C@@H]3CNC[C@@H]3F)n2)n1C [Example 76, 6-(1,2-dimethyl-1H-imidazol-5-yl)-N-[(3R,4S)-4-fluoropyrrolidin-3-yl]pyrazin-2-amine]",1.6%^
11,"Cc1cccc2ncc(-c3cncc(N[C@@H]4CCNC4)n3)n12 [Example 58, 6-(5-Methylimidazo[1,2-a]pyridin-3-yl)-N-[(3R)-pyrrolidin-3-yl]pyrazin-2-amine]",0%
12,"Cc1ncc(-c2cncc(NC3CCCCNC3)n2)n1C (stereo not shown) [Example 69, N-[6-(1,2-dimethyl-1H-imidazol-5-yl)pyrazin-2-yl]azepan-3-amine]",0.60%^
13,"Cc1ncc(-c2cncc(N[C@@H]3CC[C@H](C)NC3)n2)n1C [Example 70, 6-(1,2-dimethyl-1H-imidazol-5-yl)-N-[(3R,6S)-6-methylpiperidin-3-yl]pyrazin-2-amine]",0%

# The remaining lines, values ahead:
row,percent inhibition (where no Ki data is available),SMILES
1,49.1%^,"Cc1cn2c(-c3cncc(N[C@H]4CCCN[C@@H]4C)n3)cnc2s1 [Example 177, 6-(2-methylimidazo[2,1-b][1,3]thiazol-5-yl)-N-[(2R,3S)-2-methylpiperidin-3-yl]pyrazin-2-amine]"
2,98.9%^,"FC[C@@H]1CNC[C@@H]1Nc1cncc(-c2cnc3sccn23)n1 [Example 182, N-[(3R,4R)-4-(fluoromethyl)pyrrolidin-3-yl]-6-(imidazo[2,1-b][1,3]thiazol-5-yl)pyrazin-2-amine]"
3,0%,"C[C@@H]1NCCC[C@H]1Nc1cncc(-c2cnc3ccccn23)n1 [Example 131, 6-imidazo[1,2-a]pyridin-3-yl-N-[(2S,3R)-2-methylpiperidin-3-yl]pyrazin-2-amine]"
4,2.2%^,"Cc1nc2ccccn2c1-c1cncc(N[C@@H]2CCCNC2)n1 [Example 153, 6-(2-methylimidazo[1,2-a]pyridin-3-yl)-N-[(3R)-piperidin-3-yl]pyrazin-2-amine]"
5,21%,"Cc1cccn2c(-c3cncc(N[C@@H]4CCCNC4)n3)cnc12 [Example 207, 6-(8-methylimidazo[1,2-a]pyridin-3-yl)-N-[(3R)-piperidin-3-yl]pyrazin-2-amine]"
6,17.9%^,"c1cc2ncn(-c3cncc(N[C@@H]4CCNC4)n3)c2cc1OCC1CC1 [Example 220, 6-[6-(cyclopropylmethoxy)-1H-benzimidazol-1-yl]-N-[(3R)-pyrrolidin-3-yl]pyrazin-2-amine]"

# Source: US8518952B2, “6 substituted 2-heterocyclylamino pyrazine compounds as CHK-1 inhibitors” (Pfizer Inc., priority 2008, dated 2013)
